Measurements from patent US12195427B2, “MASP-2 inhibitors and methods of use” (priority 2018, dated 2025).
Structures can show the parent of a compound that is named as a salt. Each block holds one compound with its values, some of them ahead of it.

Biological target: MASP-2 CCP2-SP (Homo sapiens (Human), UniProt O00187)
Test: MASP-2 co-crystallization, X-ray crystallography and structure analysis (H-bonds, van der Waals contacts);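 for Ligand-pharmacophore element distance, pharmacophore element C2: distance from averaged pharmacophore element to bound ligand; missing value means element absent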;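 for Ligand-pharmacophore element distance, pharmacophore element C3: distance from averaged pharmacophore element to bound ligand; missing value means element absent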;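 for Ligand-pharmacophore element distance, pharmacophore element C4: distance from averaged pharmacophore element to bound ligand; missing value means element absent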;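 for Ligand-pharmacophore element distance, pharmacophore element C5: distance from averaged pharmacophore element to bound ligand; missing value means element absent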
Design: van der Waals contact distance, MASP-2 HIS 483 atom CD2 / van der Waals contact distance, MASP-2 HIS 483 atom NE2 / van der Waals contact distance, SER 654 C to compound atom / van der Waals contact distance, SER 654 O to compound atom / van der Waals contact distance, TRP 655 C to compound atom / van der Waals contact distance, MASP-2 GLY 528 atom CA / van der Waals contact distance TRP 655 atom CZ3 / van der Waals contact distance TRP 655 atom N / van der Waals contact distance TRP 655 atom CE3 / van der Waals contact distance GLY 656 atom C / van der Waals contact distance GLY 656 atom CA / van der Waals contact distance GLY 656 atom O / van der Waals contact distance, MASP-2 TYR 607 atom CD1 / van der Waals contact distance, MASP-2 PRO 606 atom O / d(C3,CA1) / d(CA1,N1)2 / d(H4,O1) / d(H4,O2) / d(O1,O2) / d(CA1,O2) / d(CA6,O1) / d(CA6,O2) / d(CA1,C5) / d(O2,H3) / d(N2,C2) / d(CA5,N2) / d(N2,C4) / d(N2,C6) / d(N2,CA3) / d(N2,O3) / d(O4,H2): unit not given beside the values
Details: for H-bond distance to MASP-2 SER 657 atom O: SER 657 O; for van der Waals contact distance TRP 655 atom CE3: MASP-2 TRP 655 CE3, compound atom in line below; for Ligand-pharmacophore element distance, pharmacophore element C2 / Ligand-pharmacophore element distance, pharmacophore element C3 / Ligand-pharmacophore element distance, pharmacophore element C4 / Ligand-pharmacophore element distance, pharmacophore element C5 / Ligand-pharmacophore element distance, pharmacophore element C6 / Ligand-pharmacophore element distance, pharmacophore element C7 / Ligand-pharmacophore element distance, pharmacophore element CA1 / Ligand-pharmacophore element distance, pharmacophore element CA2 / Ligand-pharmacophore element distance, pharmacophore element CA3 / Ligand-pharmacophore element distance, pharmacophore element CA4 / Ligand-pharmacophore element distance, pharmacophore element CA5 / Ligand-pharmacophore element distance, pharmacophore element CA6: Table A4-1; for a(N1, CA1, O1) b): Methyl-amino-pyridine compounds; for van der Waals contact distance SER 657 atom C: Table A2-14, MASP-2 SER 657 C, columns c12-c13 (inferred)
Outline: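 Inhibitor complexes were obtained by soaking crystals of E. coli-expressed human MASP-2 CCP2-SP constructs, then flash-cooling in liquid nitrogen. Structures solved by molecular replacement (1Q3X search model) from synchrotron diffraction; where several poses existed, only one was analyzed, and nonbonded contacts listed can include H-bonds.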

[1] = Table A5-1 pharmacophore: distance between elements, S2/S1 region
[2] = Table A5-2 pharmacophore distance, S3/S4 region
[3] = Table A7-1, between pharmacophore elements of the bound compound
[4] = Table A7-2, between pharmacophore elements of the bound compound
[5] = Table A8-6, nearest protein atom in cell to the left

Chain of MASP-2 CCP2-SP (O00187 445-686): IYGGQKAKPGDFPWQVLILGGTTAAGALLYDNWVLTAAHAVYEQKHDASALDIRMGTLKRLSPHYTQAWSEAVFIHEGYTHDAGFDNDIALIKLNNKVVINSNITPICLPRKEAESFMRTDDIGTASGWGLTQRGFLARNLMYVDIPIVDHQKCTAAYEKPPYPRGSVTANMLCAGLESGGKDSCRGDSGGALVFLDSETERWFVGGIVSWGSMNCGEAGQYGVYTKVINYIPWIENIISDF
Chain of MASP-2 CCP2-SP (O00187 364-432 partner): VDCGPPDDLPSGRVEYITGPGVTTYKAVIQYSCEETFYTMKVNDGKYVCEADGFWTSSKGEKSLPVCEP

SMILES: Cc1nc(N)ccc1CNC(=O)[C@H](C)NC(=O)[C@H]1C[C@H](Cc2ccccc2Br)CN1 [compound 1372, (2R,4S)—N—((S)-1-(((6-Amino-2-methylpyridin-3-yl)methyl)amino)-1-oxopropan-2-yl)-4-(2-bromobenzyl)pyrrolidine-2-carboxamide Di-trifluoroacetate salt]
- H-bond distance to MASP-2 ASP 627 atom OD2 (Table A1 (H-Bonds), ASP 627 OD2): 3.17
- H-bond distance to MASP-2 GLY 656 atom N (Table A1 (H-Bonds), GLY 656 N): 3.23
- H-bond distance to MASP-2 GLY 656 atom O (Table A1 (H-Bonds), GLY 656 O): 2.81
- H-bond distance to MASP-2 SER 628 atom O (Table A1 (H-Bonds), SER 628 O): 3.18
- H-bond distance to MASP-2 SER 654 atom O (Table A1 (H-Bonds), SER 654 O): 2.97
- H-bond distance to MASP-2 SER 657 atom O (Table A1 (H-Bonds)): 2.87
- van der Waals contact distance, MASP-2 HIS 483 atom CD2 (Table A2-1): 3.77
- van der Waals contact distance, MASP-2 HIS 483 atom NE2 (Table A2-1): 3.67
- van der Waals contact distance, MASP-2 GLY 528 atom CA (Table A2-2): 3.83
- van der Waals contact distance, MASP-2 TYR 607 atom CD1 (Table A2-4): 3.77
- van der Waals contact distance, MASP-2 amino acid atom to compound atom (Table A2-7: SER 628 (CB, O, OG)): 3.68
- van der Waals contact distance, VAL 653 CG1 to compound atom (Table A2-11): 3.32
- van der Waals contact distance, TRP 655 CA to compound atom (Table A2-12): 3.48
- van der Waals contact distance TRP 655 atom CE3 (Table A2-13): 3.54
- van der Waals contact distance TRP 655 atom CZ3 (Table A2-13, MASP-2 TRP 655 CZ3): 3.48

SMILES: Cc1nc(N)ccc1CNC(=O)[C@H](C)NC(=O)[C@H]1C[C@H](Cc2ccccc2Br)CN1.O=C(O)C(F)(F)F.O=C(O)C(F)(F)F [1372_A]
- Ligand-pharmacophore element distance, pharmacophore element C2: 0
- Ligand-pharmacophore element distance, pharmacophore element C3: 0.09
- Ligand-pharmacophore element distance, pharmacophore element C4: 1.91
- Ligand-pharmacophore element distance, pharmacophore element C5: 0
- Ligand-pharmacophore element distance, pharmacophore element C6: 0
- Ligand-pharmacophore element distance, pharmacophore element C7: 0
- Ligand-pharmacophore element distance, pharmacophore element CA1: 0.55
- Ligand-pharmacophore element distance, pharmacophore element CA2: 0.47
- Ligand-pharmacophore element distance, pharmacophore element CA3: 0
- Ligand-pharmacophore element distance, pharmacophore element CA4: 0
- Ligand-pharmacophore element distance, pharmacophore element CA5: 0
- Ligand-pharmacophore element distance, pharmacophore element CA6: 0
- d(C3,CA1) [1]: 2.85
- d(CA1,N1)2 [1]: 1.38
- d(CA1,O1) [1]: 4.38
- d(CA1,O2) [1]: 3.94
- d(H4,O1) [1]: 4.40
- d(H4,O2) [1]: 3.88
- d(O1,O2) [1]: 3.32
- d(N2,C4) [2]: 6.06
- d(N2,C4)4 [2]: 6.06
- d(N2,CA2) [2]: 5.99
- d(O2,H3) [2]: 2.30
- d(O2,N2) [2]: 2.66
- a(C3, CA1, O1) (Table A6-1 pharmacophore angle): 149.88
- a(CA1, O1, O2) (Table A6-1 pharmacophore angle): 106.33
- a(O1, O2, H4) (Table A6-1 pharmacophore angle): 133.23
- a(N1, CA1, O1) b) (Table A6-1 pharmacophore angle): 174.16
- a(O1, O2, H3) (Table A6-2 pharmacophore angle): 137.15
- a(O1, O2, N2) (Table A6-2 pharmacophore angle): 140.15
- a(O2, N2, C4) (Table A6-2 pharmacophore angle): 159.60
- a(O2, N2, C4) 2 (Table A6-2 pharmacophore angle): 127.51
- a(O2, N2, CA2) (Table A6-2 pharmacophore angle): 155.91
- Pharmacophore torsion angle a(C3, CA1, O1, H4) [3]: 25.78
- Pharmacophore torsion angle a(H4, O1, O2, H3) [3]: 99.84
- Pharmacophore torsion angle a(H4, O1, O2, N2) [3]: 136.36
- Pharmacophore torsion angle a(N1, CA1, O1, H4) [3]: 5.73
- Pharmacophore torsion angle a(O1, H4, O2, CA1) [3]: −83.68
- Pharmacophore torsion angle a(O1, O2, N2, CA2) [4]: 129.48

SMILES: Cc1nc(N)ccc1CNC(=O)[C@H](C)NC(=O)[C@H]1C[C@@H](c2cccc3ccccc23)CCN1.Cl.Cl [1297_5]
- Ligand-pharmacophore element distance, pharmacophore element C2: 0.24
- Ligand-pharmacophore element distance, pharmacophore element C3: 0.29
- Ligand-pharmacophore element distance, pharmacophore element C4: 0
- Ligand-pharmacophore element distance, pharmacophore element C5: 0
- Ligand-pharmacophore element distance, pharmacophore element C6: 0
- Ligand-pharmacophore element distance, pharmacophore element C7: 0
- Ligand-pharmacophore element distance, pharmacophore element CA1: 0.44
- Ligand-pharmacophore element distance, pharmacophore element CA2: 0.07
- Ligand-pharmacophore element distance, pharmacophore element CA3: 0
- Ligand-pharmacophore element distance, pharmacophore element CA4: 1.22
- Ligand-pharmacophore element distance, pharmacophore element CA5: 0
- Ligand-pharmacophore element distance, pharmacophore element CA6: 0
- d(C3,CA1) [1]: 2.86
- d(CA1,N1)2 [1]: 1.38
- d(CA1,O1) [1]: 4.59
- d(CA1,O2) [1]: 3.88
- d(H4,O1) [1]: 4.56
- d(H4,O2) [1]: 3.82
- d(O1,O2) [1]: 3.43
- d(N2,C2) [2]: 1.43
- d(N2,CA2) [2]: 5.69
- d(O2,H3) [2]: 4.06
- d(O2,N2) [2]: 2.67
- a(C3, CA1, O1) (Table A6-1 pharmacophore angle): 150.41
- a(CA1, O1, O2) (Table A6-1 pharmacophore angle): 102.43
- a(O1, O2, H4) (Table A6-1 pharmacophore angle): 132.64
- a(N1, CA1, O1) b) (Table A6-1 pharmacophore angle): 174.11
- a(O1, O2, H3) (Table A6-2 pharmacophore angle): 146.79
- a(O1, O2, N2) (Table A6-2 pharmacophore angle): 147.10
- a(O2, N2, C2) (Table A6-2 pharmacophore angle): 132.77
- a(O2, N2, CA2) (Table A6-2 pharmacophore angle): 157.05
- Pharmacophore torsion angle a(C3, CA1, O1, H4) [3]: 30.12
- Pharmacophore torsion angle a(H4, O1, O2, H3) [3]: 47.86
- Pharmacophore torsion angle a(H4, O1, O2, N2) [3]: 144.38
- Pharmacophore torsion angle a(N1, CA1, O1, H4) [3]: 10.41
- Pharmacophore torsion angle a(O1, H4, O2, CA1) [3]: −86.41
- Pharmacophore torsion angle a(O1, O2, N2, C2) [3]: 111.81
- Pharmacophore torsion angle a(O1, O2, N2, CA2) [4]: 122.50
- Pharmacophore torsion angle a(O1, O2, N2, CA4) [4]: 101.00

- H-bond distance to MASP-2 SER 628 atom OG (Table A1 (H-Bonds), SER 628 OG): 2.75
- H-bond distance to MASP-2 SER 657 atom O (Table A1 (H-Bonds)): 2.84
- van der Waals contact distance, MASP-2 TYR 607 atom CD2 (Table A2-4): 3.72
- van der Waals contact distance, MASP-2 amino acid atom to compound atom (Table A2-5: TYR 607 (CE1, CE2, OH), PRO 608 (CD, CG), SER 611 (CA)): 3.67
- van der Waals contact distance, MASP-2 amino acid atom to compound atom (Table A2-9, ARG 630, AA atoms CG, CZ): 3.8
- van der Waals contact distance GLY 656 atom C (Table A2-13, MASP-2 GLY 656 C): 3.42
- van der Waals contact distance TRP 655 atom CE3 (Table A2-13): 3.75
- van der Waals contact distance TRP 655 atom O (Table A2-13, MASP-2 TRP 655 O): 3.39
- van der Waals contact distance SER 657 atom C: 3.77
- van der Waals contact distance SER 657 atom C (listed as Melagatran): 3.68
SMILES: N=C(N)c1ccc(CNC(=O)[C@@H]2CCN2C(=O)[C@H](NCC(=O)O)C2CCCCC2)cc1 [melagatran, reference compound]

SMILES: C[C@H](NC(=O)[C@H]1C[C@@H](c2ccccc2)CCN1)C(=O)NCc1cc(Cl)ccc1O.Cl [1078_10]
- Ligand-pharmacophore element distance, pharmacophore element C2: 0.49
- Ligand-pharmacophore element distance, pharmacophore element C3: 0
- Ligand-pharmacophore element distance, pharmacophore element C4: 0
- Ligand-pharmacophore element distance, pharmacophore element C5: 0.3
- Ligand-pharmacophore element distance, pharmacophore element C6: 0
- Ligand-pharmacophore element distance, pharmacophore element C7: 0
- Ligand-pharmacophore element distance, pharmacophore element CA1: 1.34
- Ligand-pharmacophore element distance, pharmacophore element CA2: 0.49
- Ligand-pharmacophore element distance, pharmacophore element CA3: 0
- Ligand-pharmacophore element distance, pharmacophore element CA4: 0
- Ligand-pharmacophore element distance, pharmacophore element CA5: 0
- Ligand-pharmacophore element distance, pharmacophore element CA6: 0
- d(CA1,C5) [1]: 3.12
- d(CA1,O1) [1]: 4.35
- d(CA1,O2) [1]: 4.37
- d(CA1,O4) [1]: 2.76
- d(H4,O1) [1]: 3.11
- d(H4,O2) [1]: 3.46
- d(O1,O2) [1]: 2.72
- d(O4,H2) [1]: 0.97
- d(N2,C2) [2]: 1.48
- d(N2,CA2) [2]: 5.72
- d(O2,H3) [2]: 1.97
- d(O2,N2) [2]: 2.74
- a(C5, CA1, O1) (Table A6-1 pharmacophore angle): 160.63
- a(CA1, O1, O2) (Table A6-1 pharmacophore angle): 108.49
- a(CA1, O4, H2) (Table A6-1 pharmacophore angle): 127.01
- a(O1, CA1, O4) (Table A6-1 pharmacophore angle): 71.55
- a(O1, O2, H4) (Table A6-1 pharmacophore angle): 131.53
- a(O1, O2, H3) (Table A6-2 pharmacophore angle): 146.00
- a(O1, O2, N2) (Table A6-2 pharmacophore angle): 152.80
- a(O2, N2, C2) (Table A6-2 pharmacophore angle): 131.78
- a(O2, N2, CA2) (Table A6-2 pharmacophore angle): 156.19
- Pharmacophore torsion angle a(C5, CA1, O1, H4) [3]: −9.97
- Pharmacophore torsion angle a(H4, O1, O2, H3) [3]: −152.67
- Pharmacophore torsion angle a(H4, O1, O2, N2) [3]: −164.78
- Pharmacophore torsion angle a(O1, H4, O2, CA1) [3]: −84.11
- Pharmacophore torsion angle a(O1, O2, N2, C2) [3]: 123.40
- Pharmacophore torsion angle a(O1, O2, N2, CA2) [4]: 136.18
- Pharmacophore protein distance to MET_658 (first MET_658 column) (Table A8-6, 6th residue column, nearest protein atom in cell to the left): 3.04
- Pharmacophore protein distance to MET_658 (second MET_658 column) (Table A8-6, 9th residue column, nearest protein atom in cell to the left): 3.81
- Pharmacophore protein distance to GLY_528 [5]: 3.40
- Pharmacophore protein distance to PHE_529 [5]: 3.08
- Pharmacophore protein distance to PRO_608 [5]: 3.66
- Pharmacophore protein distance to SER_611 [5]: 2.78
- Pharmacophore protein distance to TRP_655 (Table A8-6, pharmacophore elements C6, CA3, O3, H1, nearest protein atom in cell to the left): 3.89
